Assay results taken from patent publication US8440643B2, “Inhibitors of beta-lactamase” (MethylGene Inc., priority 2006, dated 2013).

System: Ps. aeruginosa, CL 5701
Test: Imipenem MIC against Ps. aeruginosa CL 5701
Type: cell-based
Conditions: Pseudomonas aeruginosa, CL5701, imipenem alone
Description: The assay determines the concentration of a β-lactamase inhibitor required to reduce the MIC of a β-lactam antibiotic by one-half, one-quarter, one-eighth, one-sixteenth and one-thirty-second against strains of bacteria normally resistant to the antibiotic in question. This is accomplished by titrating the inhibitor (BLI=beta-lactamase inhibitor) in a serial dilution across a microtiter plate while at the same time titrating the antibiotic (AB) in a serial dilution down the microtiter plate and then inoculating the plate with the bacterial strain in question and allowing the bacteria to grow up overnight. Each well in this microplate checkerboard contains a different combination of concentrations of the inhibitor and the antibiotic allowing a full determination of any synergy between the two.
• 1. All wells in rows B-H of MIC 2000 microtiter plates are filled with 100 μL of MHBII+1% DMSO (dimethyl sulfoxide). • 2. All wells in row A of MIC 2000 microtiter plates are filled with 100 μL of 2×MHBII+2% DMSO. • 3. […] Plates are left at 37° C. for about 20 hours and scored for growth by eye. […]
Plates are scored for growth in each well. End points (MICs) where there is no growth in each row are determined and the concentrations of AB and the test BLI at each of these growth negative wells are then used to determine levels of synergy. […]

MIC: 20 µg/mL
SMILES: C[C@@H](O)[C@H]1C(=O)N2C(C(=O)O)=C(SCCN=CN)C[C@H]12 [Imipenem]
